The values that follow come from ChEMBL document CHEMBL1949559, “Discovery of a new class of potent prolylcarboxypeptidase inhibitors derived from alanine” (Bioorg Med Chem Lett, 2012).

Each structure is given as a SMILES string. Bounds are passed on as bounds.

Data set [1] has as its target T1, Lysosomal Pro-X carboxypeptidase (Homo sapiens, UniProt P42785).
T1 sequence (P42785 whole entry): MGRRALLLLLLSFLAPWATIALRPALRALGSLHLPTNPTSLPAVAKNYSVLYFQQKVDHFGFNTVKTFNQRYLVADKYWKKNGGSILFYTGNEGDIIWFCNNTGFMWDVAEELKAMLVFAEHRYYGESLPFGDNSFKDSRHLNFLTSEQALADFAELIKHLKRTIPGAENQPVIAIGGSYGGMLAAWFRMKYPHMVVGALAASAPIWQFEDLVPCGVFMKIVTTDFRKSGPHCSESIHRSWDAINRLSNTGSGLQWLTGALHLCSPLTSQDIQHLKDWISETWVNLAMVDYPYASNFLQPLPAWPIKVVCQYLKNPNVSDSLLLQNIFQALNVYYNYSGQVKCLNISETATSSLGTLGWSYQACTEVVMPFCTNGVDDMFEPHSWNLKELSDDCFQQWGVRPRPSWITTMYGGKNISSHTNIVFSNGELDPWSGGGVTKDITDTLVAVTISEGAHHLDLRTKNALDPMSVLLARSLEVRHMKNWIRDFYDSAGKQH
In words: Inhibition of human recombinant PrCP using Mca-Ala-Pro-Lys(Dnp)-OH as substrate for 30 mins by continuous fluorimetric assay.

Data set [2] addresses T2, Lysosomal Pro-X carboxypeptidase (Homo sapiens) (UniProt P42785).
T2 sequence (whole entry): T1 sequence (P42785 whole entry)
In words: Inhibition of human recombinant PrCP using Mca-Ala-Pro-Lys(Dnp)-OH as substrate at 0.5 uM for 30 mins by continuous fluorimetric assay.

Data set [3] concerns the target T2, Lysosomal Pro-X carboxypeptidase (Homo sapiens). In words: Inhibition of human recombinant PrCP using Mca-Ala-Pro-Lys(Dnp)-OH as substrate at 5 uM for 30 mins by continuous fluorimetric assay.
Data set [4] has as its target T3, Lysosomal Pro-X carboxypeptidase (Mus musculus, UniProt Q7TMR0).
T3 sequence (Q7TMR0 whole entry): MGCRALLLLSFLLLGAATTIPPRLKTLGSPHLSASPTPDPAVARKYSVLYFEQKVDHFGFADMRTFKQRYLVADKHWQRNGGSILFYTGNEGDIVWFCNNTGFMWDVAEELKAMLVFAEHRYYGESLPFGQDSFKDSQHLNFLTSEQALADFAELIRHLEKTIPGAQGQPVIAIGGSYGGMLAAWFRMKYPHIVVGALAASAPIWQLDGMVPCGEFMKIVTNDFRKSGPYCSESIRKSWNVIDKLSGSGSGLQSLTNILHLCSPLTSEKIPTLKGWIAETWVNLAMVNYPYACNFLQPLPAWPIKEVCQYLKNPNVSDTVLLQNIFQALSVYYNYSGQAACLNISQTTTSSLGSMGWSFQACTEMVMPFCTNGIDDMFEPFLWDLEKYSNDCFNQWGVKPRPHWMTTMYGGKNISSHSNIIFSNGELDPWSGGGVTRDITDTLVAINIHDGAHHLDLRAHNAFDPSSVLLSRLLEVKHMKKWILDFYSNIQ
The data set can be described thus: Inhibition of PrCP-mediated angiotensin3 cleavage in mouse plasma using exogenous angiotensin III as substrate for 8 mins by LC/MS analysis.

In data set [5] the target is T3, Lysosomal Pro-X carboxypeptidase. In words: Inhibition of mouse recombinant PrCP using Mca-Ala-Pro-Lys(Dnp)-OH as substrate for 30 mins by continuous fluorimetric assay.
A short description of data set [6]: Half life in mouse at 1 mg/kg, iv and 2 mg/kg, po. Format: ADME, organism-based. The note with it: in vivo.
A short description of data set [7]: Volume of distribution at steady state in mouse at 1 mg/kg, iv and 2 mg/kg, po. Format: ADME, organism-based. The note with it: in vivo, read-out: Vdss.
A further data set deals with Mus musculus. The data set can be described thus: Dose normalized AUC in mouse at 2 mg/kg, po. The note with it: in vivo. Further details: dose 2 mg/kg, route oral. Format: ADME, organism-based.
Data set [8] can be described thus: Oral bioavailability in mouse at 2 mg/kg. Format: ADME, organism-based. The note with it: in vivo.
Data set [9] is described as follows: Clearance in mouse at 1 mg/kg, iv and 2 mg/kg, po. Format: ADME, organism-based. The note with it: in vivo.

Consider `CC(C)(C)OC(=O)N[C@@H](Cc1ccc(-c2ccccc2)cc1)C(=O)N1CCCC[C@H]1c1nc2cc(Cl)c(Cl)cc2[nH]1`, for which, in data set [1], the half-maximal inhibitory concentration (IC50) (in general, the point on the concentration scale where inhibition reaches its midpoint) is over 10000 nM. Take `COc1cccc(-c2cnc(C(NC(=O)CCCOc3ccccc3)C3CCCCC3)[nH]2)c1` (configuration not stated): the inhibition – broadly, the share of the control response that was lost under treatment – in data set [2] worked out at 7%; in data set [3], 31%. In data set [4], `C[C@H](NC(=O)[C@H](Cc1ccc(-c2ccccc2)cc1)NCC(C)(C)N)c1nc2cc(Cl)c(Cl)cc2[nH]1` displayed an IC50 of 585 nM. Turning to `O=C(CCc1ccc(-c2ccccc2)cc1)NCc1nc2cc(Cl)c(Cl)cc2[nH]1`, the IC50 in data set [1] is over 10000 nM. `C[C@H](NC(=O)[C@H](Cc1cccc(C#N)c1)NC(=O)C(C)(C)N)c1nc2cc(Cl)c(Cl)cc2[nH]1`: the IC50 was found to be 128 nM in data set [5] and 1600 nM in data set [4]. With `COc1cccc(-c2cnc([C@H](C)NC(=O)CCCOc3ccccc3)[nH]2)c1`, the inhibition was 65% in data set [2] and 90% in data set [3]. `C[C@H](NC(=O)[C@@H](NC(=O)C(C)(C)N)[C@@H](C)c1ccc(-c2ccccc2)cc1)c1nc2cc(Cl)c(Cl)cc2[nH]1`: the IC50 was 0.039 nM in data set [5] and 22 nM in data set [4]. In addition, the half-life (commonly the time needed for the level to fall by half in the phase considered) in [6] is 4 h. For the same compound, the Vd in [7] was 14 L/kg. In the data set with Mus musculus, the AUC/dose was 0.52 µM·kg·h/mg. The bioavailability – broadly, the share of a dose that reaches the circulation, judged against a reference dose that is usually intravenous – in data set [8] was 17%. This compound had a clearance in data set [9] of 58 mL/min/kg. In the case of `CC(C)(NC(=O)CCN1CCC(c2ccccc2)CC1)c1nc2cc(Cl)c(Cl)cc2[nH]1`, the IC50 in data set [1] came to 181 nM.

Take `C[C@H](NC(=O)CCN1CCN(c2cccc(F)c2)CC1)c1nc2cc(Cl)c(Cl)cc2[nH]1`: half-maximal inhibition in [4] (IC50) was put at 5000 nM. Regarding `O=C(CCCOc1ccccc1)N[C@@H](Cc1ccccc1)c1ncc(-c2ccc(F)cc2)[nH]1`, the inhibition in [2] stood at 3%; in [3], 13%.

On to `C[C@H](NC(=O)CCN1CCN(c2ccc(F)cc2)CC1)c1nc2cc(Cl)c(Cl)cc2[nH]1`, for which the IC50 in data set [4] stood at 20000 nM.

`C[C@H](NC(=O)[C@@H](N)Cc1cccc(C#N)c1)c1nc2cc(Cl)c(Cl)cc2[nH]1` came in with a 50% inhibitory concentration (IC50) in [4] of 5000 nM.

Compound `C[C@H](NC(=O)[C@@H](NC(=O)C(C)(C)N)[C@@H](C)c1ccc(OCC(F)(F)F)cc1)c1nc2cc(Cl)c(Cl)cc2[nH]1` registered an IC50 in [4] of 92 nM. In data set [4], `C[C@H](NC(=O)[C@@H](NC(=O)C(C)(C)O)[C@@H](C)c1ccc(OCC(F)(F)F)cc1)c1nc2cc(Cl)c(Cl)cc2[nH]1` showed an IC50 of 45 nM. Same read-out and setting: the result for `C[C@H](NC(=O)[C@@H](NC(=O)C(C)(C)O)[C@@H](C)c1ccc(-c2cn[nH]c2)cc1)c1nc2cc(Cl)c(Cl)cc2[nH]1` reads 78 nM. As to `Clc1cc2nc(-c3cccnc3OCCc3ccc(-c4ccccc4)cc3)[nH]c2cc1Cl`, in data set [1], the IC50 is over 10000 nM. Consider `Clc1cc2nc(-c3cccnc3NCCc3ccc(-c4ccccc4)cc3)[nH]c2cc1Cl`, for which the IC50 in data set [1] is over 10000 nM.
